From the NIST ThermoML archive (doi:10.1021/je0503296)
Numbers after ± are expanded uncertainties.

Settings: Liquid, Vibrating object- edge clamped plate

Compound: Cc1ccccc1 [toluene]
- mass density (323.15 K, 100 kPa): 837 ± 1.7 kg/m3
- viscosity (323.15 K, 100 kPa): 0.421 ± 0.01 mPa·s
- mass density (323.15 K, 13940 kPa): 850.7 ± 1.7 kg/m3
- viscosity (323.15 K, 13940 kPa): 0.482 ± 0.012 mPa·s
- mass density (323.15 K, 27338 kPa): 861.7 ± 1.7 kg/m3
- viscosity (323.15 K, 27338 kPa): 0.524 ± 0.013 mPa·s
- mass density (323.15 K, 41055 kPa): 871.5 ± 1.7 kg/m3
- viscosity (323.15 K, 41055 kPa): 0.571 ± 0.014 mPa·s
- mass density (323.15 K, 54593 kPa): 880.1 ± 1.8 kg/m3
- viscosity (323.15 K, 54593 kPa): 0.615 ± 0.015 mPa·s
- mass density (323.15 K, 68135 kPa): 888.1 ± 1.8 kg/m3
- viscosity (323.15 K, 68135 kPa): 0.66 ± 0.016 mPa·s
- mass density (373.11 K, 13270 kPa): 807.3 ± 1.6 kg/m3
- viscosity (373.11 K, 13270 kPa): 0.2924 ± 0.0071 mPa·s
- mass density (373.11 K, 26975 kPa): 822.5 ± 1.6 kg/m3
- viscosity (373.11 K, 26975 kPa): 0.3398 ± 0.0088 mPa·s
- mass density (373.11 K, 40789 kPa): 834.2 ± 1.7 kg/m3
- viscosity (373.11 K, 40789 kPa): 0.3691 ± 0.0092 mPa·s
- mass density (373.11 K, 54631 kPa): 845 ± 1.7 kg/m3
- viscosity (373.11 K, 54631 kPa): 0.419 ± 0.011 mPa·s
- mass density (373.11 K, 68196 kPa): 853.4 ± 1.7 kg/m3
- viscosity (373.11 K, 68196 kPa): 0.436 ± 0.011 mPa·s

Compound: CCCCCCCC [octane]
- mass density (323.15 K, 100 kPa): 676 ± 1.4 kg/m3
- viscosity (323.15 K, 100 kPa): 0.3892 ± 0.0095 mPa·s
- mass density (323.15 K, 10096 kPa): 687.7 ± 1.4 kg/m3
- viscosity (323.15 K, 10096 kPa): 0.44 ± 0.011 mPa·s
- mass density (323.15 K, 20701 kPa): 698.1 ± 1.4 kg/m3
- viscosity (323.15 K, 20701 kPa): 0.495 ± 0.012 mPa·s
- mass density (323.15 K, 30654 kPa): 706.7 ± 1.4 kg/m3
- viscosity (323.15 K, 30654 kPa): 0.53 ± 0.013 mPa·s
- mass density (323.15 K, 41050 kPa): 714.6 ± 1.4 kg/m3
- viscosity (323.15 K, 41050 kPa): 0.576 ± 0.014 mPa·s
- mass density (323.15 K, 54543 kPa): 723.9 ± 1.4 kg/m3
- viscosity (323.15 K, 54543 kPa): 0.633 ± 0.016 mPa·s
- mass density (323.15 K, 68036 kPa): 732.2 ± 1.5 kg/m3
- viscosity (323.15 K, 68036 kPa): 0.693 ± 0.017 mPa·s
- mass density (348.14 K, 100 kPa): 654.3 ± 1.3 kg/m3
- viscosity (348.14 K, 100 kPa): 0.3011 ± 0.0081 mPa·s
- mass density (348.14 K, 7551 kPa): 664.7 ± 1.3 kg/m3
- viscosity (348.14 K, 7551 kPa): 0.3338 ± 0.0087 mPa·s
- mass density (348.14 K, 13680 kPa): 672.2 ± 1.3 kg/m3
- viscosity (348.14 K, 13680 kPa): 0.3513 ± 0.0088 mPa·s
- mass density (348.14 K, 20500 kPa): 679.4 ± 1.4 kg/m3
- viscosity (348.14 K, 20500 kPa): 0.378 ± 0.01 mPa·s
- mass density (348.14 K, 27466 kPa): 686.1 ± 1.4 kg/m3
- viscosity (348.14 K, 27466 kPa): 0.4008 ± 0.0099 mPa·s
- mass density (348.14 K, 27469 kPa): 686.1 ± 1.4 kg/m3
- viscosity (348.14 K, 27469 kPa): 0.4 ± 0.01 mPa·s
- mass density (348.14 K, 34305 kPa): 692.1 ± 1.4 kg/m3
- viscosity (348.14 K, 34305 kPa): 0.424 ± 0.01 mPa·s
- mass density (348.14 K, 34314 kPa): 690.8 ± 1.4 kg/m3
- viscosity (348.14 K, 34314 kPa): 0.424 ± 0.01 mPa·s
- mass density (348.14 K, 41226 kPa): 697.9 ± 1.4 kg/m3
- viscosity (348.14 K, 41226 kPa): 0.449 ± 0.011 mPa·s
- mass density (348.14 K, 41227 kPa): 697.8 ± 1.4 kg/m3
- viscosity (348.14 K, 41227 kPa): 0.449 ± 0.011 mPa·s
- mass density (348.14 K, 48070 kPa): 703.1 ± 1.4 kg/m3
- viscosity (348.14 K, 48070 kPa): 0.471 ± 0.012 mPa·s
- mass density (348.14 K, 55000 kPa): 708.2 ± 1.4 kg/m3
- viscosity (348.14 K, 55000 kPa): 0.498 ± 0.012 mPa·s
- mass density (348.14 K, 55004 kPa): 708.1 ± 1.4 kg/m3
- viscosity (348.14 K, 55004 kPa): 0.499 ± 0.012 mPa·s
- mass density (348.14 K, 61992 kPa): 714.2 ± 1.4 kg/m3
- viscosity (348.14 K, 61992 kPa): 0.522 ± 0.015 mPa·s
- mass density (348.14 K, 61994 kPa): 712.8 ± 1.4 kg/m3
- viscosity (348.14 K, 61994 kPa): 0.533 ± 0.015 mPa·s
- mass density (373.12 K, 6723 kPa): 644.7 ± 1.3 kg/m3
- viscosity (373.12 K, 6723 kPa): 0.2757 ± 0.0067 mPa·s
- mass density (373.12 K, 6724 kPa): 644.6 ± 1.3 kg/m3
- viscosity (373.12 K, 6724 kPa): 0.2758 ± 0.0067 mPa·s
- mass density (373.12 K, 20592 kPa): 662.9 ± 1.3 kg/m3
- viscosity (373.12 K, 20592 kPa): 0.3205 ± 0.008 mPa·s
- mass density (373.12 K, 20599 kPa): 662.9 ± 1.3 kg/m3
- viscosity (373.12 K, 20599 kPa): 0.3217 ± 0.0079 mPa·s
- mass density (373.12 K, 27397 kPa): 670.3 ± 1.3 kg/m3
- viscosity (373.12 K, 27397 kPa): 0.3429 ± 0.009 mPa·s
- mass density (373.12 K, 27402 kPa): 670.4 ± 1.3 kg/m3
- viscosity (373.12 K, 27402 kPa): 0.3429 ± 0.0089 mPa·s
- mass density (373.12 K, 34317 kPa): 677.1 ± 1.4 kg/m3
- viscosity (373.12 K, 34317 kPa): 0.3646 ± 0.0089 mPa·s
- mass density (373.12 K, 34324 kPa): 677.2 ± 1.4 kg/m3
- viscosity (373.12 K, 34324 kPa): 0.3649 ± 0.0089 mPa·s
- mass density (373.12 K, 41184 kPa): 683.5 ± 1.4 kg/m3
- viscosity (373.12 K, 41184 kPa): 0.381 ± 0.01 mPa·s
- mass density (373.12 K, 41207 kPa): 683.6 ± 1.4 kg/m3
- viscosity (373.12 K, 41207 kPa): 0.38 ± 0.01 mPa·s
- mass density (373.12 K, 41221 kPa): 683.6 ± 1.4 kg/m3
- viscosity (373.12 K, 41221 kPa): 0.384 ± 0.01 mPa·s
- mass density (373.12 K, 48024 kPa): 689.2 ± 1.4 kg/m3
- viscosity (373.12 K, 48024 kPa): 0.409 ± 0.01 mPa·s
- mass density (373.12 K, 48032 kPa): 689.1 ± 1.4 kg/m3
- viscosity (373.12 K, 48032 kPa): 0.409 ± 0.01 mPa·s
- mass density (373.12 K, 54853 kPa): 694.6 ± 1.4 kg/m3
- viscosity (373.12 K, 54853 kPa): 0.433 ± 0.011 mPa·s
- mass density (373.12 K, 54866 kPa): 694.6 ± 1.4 kg/m3
- viscosity (373.12 K, 54866 kPa): 0.432 ± 0.011 mPa·s
- mass density (373.12 K, 61686 kPa): 699.8 ± 1.4 kg/m3
- viscosity (373.12 K, 61686 kPa): 0.447 ± 0.011 mPa·s
- mass density (373.12 K, 61704 kPa): 699.8 ± 1.4 kg/m3
- viscosity (373.12 K, 61704 kPa): 0.449 ± 0.011 mPa·s
- mass density (423.09 K, 14725 kPa): 620.5 ± 1.3 kg/m3
- viscosity (423.09 K, 14725 kPa): 0.229 ± 0.013 mPa·s
- mass density (423.09 K, 27159 kPa): 638.8 ± 1.3 kg/m3
- viscosity (423.09 K, 27159 kPa): 0.252 ± 0.016 mPa·s
- mass density (423.09 K, 40831 kPa): 655.5 ± 1.4 kg/m3
- viscosity (423.09 K, 40831 kPa): 0.287 ± 0.019 mPa·s
- mass density (423.09 K, 54591 kPa): 668.8 ± 1.4 kg/m3
- viscosity (423.09 K, 54591 kPa): 0.344 ± 0.021 mPa·s
- mass density (423.09 K, 68420 kPa): 676.4 ± 1.5 kg/m3
- viscosity (423.09 K, 68420 kPa): 0.352 ± 0.029 mPa·s
